Read-outs that look alike come from different tables or passages of the source.
Experiments:
SF-295 = test system: SF-295; set-up: method as in https://dtp.cancer.gov/dtpstandard/dwindex/index.jsp; conditions: reference drugs, ref https://dtp.cancer.gov/dtpstandard/dwindex/index.jsp; cited from earlier work
RXF 393 [1] = test system: RXF 393; set-up: method as in https://dtp.cancer.gov/dtpstandard/dwindex/index.jsp; conditions: reference drugs, ref https://dtp.cancer.gov/dtpstandard/dwindex/index.jsp; cited from earlier work
OVCAR-3 = test system: OVCAR-3; set-up: method as in https://dtp.cancer.gov/dtpstandard/dwindex/index.jsp; conditions: reference drugs, ref https://dtp.cancer.gov/dtpstandard/dwindex/index.jsp; cited from earlier work
SNB-19 = test system: SNB-19; set-up: method as in https://dtp.cancer.gov/dtpstandard/dwindex/index.jsp; conditions: reference drugs, ref https://dtp.cancer.gov/dtpstandard/dwindex/index.jsp; cited from earlier work
NCI-H522 = test system: NCI-H522; set-up: method as in https://dtp.cancer.gov/dtpstandard/dwindex/index.jsp; conditions: reference drugs, ref https://dtp.cancer.gov/dtpstandard/dwindex/index.jsp; cited from earlier work
HOP-62 = assay: NCI antitumor screen (SRB); assay type: cell-based; conditions: Homo sapiens
OVCAR-5 = assay: NCI antitumor screen (SRB); assay type: cell-based; conditions: Homo sapiens; for inhibition at 10 µM: one dose 10 µM, read-out: Growth inhibition percentage (GI%)
RXF 393 [2] = assay: NCI antitumor screen (SRB); assay type: cell-based; conditions: Homo sapiens; for inhibition at 10 µM: one dose 10 µM, read-out: Growth inhibition percentage (GI%)
CCRF-CEM = assay: NCI antitumor screen (SRB); assay type: cell-based; conditions: Homo sapiens; for inhibition at 10 µM: one dose 10 µM, read-out: Growth inhibition percentage (GI%)
[3] = test system: renal cancer tumour cell lines; assay: NCI antitumor screen, subpanel; assay type: cell-based
[4] = test system: ovarian cancer tumour cell lines; assay: NCI antitumor screen, subpanel; assay type: cell-based
[5] = test system: leukaemia tumour cell lines; assay: NCI antitumor screen, subpanel; assay type: cell-based
HOP-92 = assay: NCI antitumor screen (SRB); assay type: cell-based; conditions: Homo sapiens, five concentrations 0.01-100 µM
[6] = test system: prostate cancer tumour cell lines; assay: NCI antitumor screen, subpanel; assay type: cell-based
[7] = test system: breast cancer tumour cell lines; assay: NCI antitumor screen, subpanel; assay type: cell-based
[8] = test system: melanoma tumour cell lines; assay: NCI antitumor screen, subpanel; assay type: cell-based
[9] = test system: CNS cancer tumour cell lines; assay: NCI antitumor screen, subpanel; assay type: cell-based
[10] = test system: colon cancer tumour cell lines; assay: NCI antitumor screen, subpanel; assay type: cell-based
[11] = test system: NSC lung cancer tumour cell lines; assay: NCI antitumor screen, subpanel; assay type: cell-based
[12] = HOP-62, one dose 10 µM, read-out: Growth inhibition percentage (GI%)
[13] = HOP-62, read-out: Growth inhibition percentage (GI%)
[14] = Homo sapiens, five concentrations
[15] = Homo sapiens, read-out: LC50 (subpanel average)
[16] = five concentrations 0.01-100 µM

C#Cc1cccc(Nc2ncnc3cc(OCCOC)c(OCCOC)cc23)c1 [Erlotinib, erlotinib]
GI50 (SF-295): 15.8 µM | GI50 (RXF 393 [1]): 3.98 µM | GI50 (OVCAR-3): 3.98 µM | GI50 (SNB-19): 12.6 µM | GI50 (NCI-H522): 1 µM

Cc1ccc(C=NNC(=O)c2ccc(S(C)(=O)=O)cc2)cc1 [Compound 9, N'-(4-Methylbenzylidene)-4-(methylsulfonyl)benzohydrazide]
inhibition at 10 µM (HOP-62; [12]): < 10% | inhibition at 10 µM (OVCAR-5): < 10% | inhibition at 10 µM (RXF 393 [2]): < 10% | inhibition at 10 µM (CCRF-CEM): 20.8%

CS(=O)(=O)c1ccc(C(=O)Nc2ccc(Cl)c(-c3ccccn3)c2)c(Cl)c1 [Vismodegib, vismodegib]
GI50 (SF-295): 31.6 µM | GI50 (RXF 393 [1]): 25.1 µM | GI50 (OVCAR-3): 50.1 µM | GI50 (SNB-19): 63.1 µM | GI50 (NCI-H522): 25.1 µM

O=c1[nH]cc(F)c(=O)[nH]1 [Compound 5-Fu, 5-fluorouracil, reference compound]
inhibition at 10 µM (HOP-62; [12]): 52.2% | inhibition at 10 µM (OVCAR-5): 55.7% | inhibition at 10 µM (RXF 393 [2]): 65.7% | inhibition at 10 µM (CCRF-CEM): 42.9%

CNC(=O)c1cc(Oc2ccc(NC(=O)Nc3ccc(Cl)c(C(F)(F)F)c3)cc2)ccn1 [Sorafenib, sorafenib]
GI50 (RXF 393 [1]): 2.51 µM | GI50 (OVCAR-3): 3.16 µM | GI50 (SNB-19): 3.16 µM | GI50 (NCI-H522): 1.99 µM

COc1cc2ncnc(Nc3ccc(F)c(Cl)c3)c2cc1OCCCN1CCOCC1 [Gefitinib, gefitinib]
GI50 (SF-295): 10 µM | GI50 (RXF 393 [1]): 3.16 µM | GI50 (SNB-19): 3.16 µM | GI50 (NCI-H522): 1 µM

CS(=O)(=O)c1ccc(C(=O)NN=Cc2cccc3ccccc23)cc1 [Compound 6, 4-(Methylsulfonyl)-N'-(naphthalen-1-ylmethylene)benzohydrazide]
inhibition at 10 µM (HOP-62; [13]): 25.1% | inhibition at 10 µM (OVCAR-5): < 10% | inhibition at 10 µM (RXF 393 [2]): < 10% | inhibition at 10 µM (CCRF-CEM): 22.4%

CS(=O)(=O)c1ccc(C(=O)N/N=C/c2ccccc2O)cc1 [Compound 16]
inhibition at 10 µM (HOP-62; [13]): 71.8% | inhibition at 10 µM (OVCAR-5): 35.3% | inhibition at 10 µM (RXF 393 [2]): 47% | inhibition at 10 µM (CCRF-CEM): 84.7%

CCN(CC)c1ccc(/C=N/NC(=O)c2ccc(S(C)(=O)=O)cc2)c(O)c1 [Compound 20]
GI50 (HOP-62; HOP-62, five concentrations 0.01-100 µM): 0.085 µM | inhibition at 10 µM (HOP-62; [12]): 87.1% | TGI (subpanel average) [3]: 80.3 µM | GI50 [3, 14]: 1.4 µM | CC50 [3, 15]: > 100 µM | TGI (subpanel average) [4]: 70.0 µM | GI50 [4, 14]: 1.1 µM | CC50 [4, 15]: > 100 µM | TGI (subpanel average) [5]: 83.5 µM | GI50 [5, 14]: 0.23 µM | CC50 [5, 15]: > 100 µM | GI50 (HOP-92): 0.491 µM | TGI (subpanel average) [6]: c (Compounds showed values ≥ 100 µM) | GI50 [6, 14]: 0.23 µM | CC50 [6, 15]: > 100 µM | TGI (subpanel average) [7]: 69.5 µM | GI50 [7, 14]: 2.2 µM | CC50 [7, 15]: > 100 µM | GI50 (OVCAR-5; [16]): 6.48 µM | inhibition at 10 µM (OVCAR-5): 67.5% | TGI (subpanel average) [8]: 45.6 µM | GI50 [8, 14]: 0.31 µM | CC50 [8, 15]: > 100 µM | GI50 (RXF 393 [2]; [16]): 0.271 µM | inhibition at 10 µM (RXF 393 [2]): 71.5% | TGI (subpanel average) [9]: 71.7 µM | GI50 [9, 14]: 0.22 µM | CC50 [9, 15]: > 100 µM | TGI (subpanel average) [10]: c (Compounds showed values ≥ 100 µM) | GI50 [10, 14]: 0.27 µM | CC50 [10, 15]: > 100 µM | TGI (subpanel average) [11]: 65.0 µM | GI50 [11, 14]: 0.26 µM | CC50 [11, 15]: > 100 µM | GI50 (CCRF-CEM; [16]): 0.078 µM | inhibition at 10 µM (CCRF-CEM): 93.1%

Cc1ccc(-c2cc(C(F)(F)F)nn2-c2ccc(S(N)(=O)=O)cc2)cc1 [Celecoxib, celecoxib]
GI50 (SF-295): 15.8 µM | GI50 (RXF 393 [1]): 15.8 µM | GI50 (OVCAR-3): 15.8 µM | GI50 (SNB-19): 19.9 µM

Reference: paper PMC8288134, “Synthesis, potential antitumor activity, cell cycle analysis, and multitarget mechanisms of novel hydrazones incorporating a 4-methylsulfonylbenzene scaffold: a molecular docking study” (Journal of Enzyme Inhibition and Medicinal Chemistry, 2021)
